Results from patent US20260199363A1, “METHOD OF TREATING CANCER IN A PATIENT WITH HEPATIC DYSFUNCTION” (priority 2023, published 2026).
Read-outs that look alike come from different tables or passages of the source.

How the values were obtained:
[1] = tested on: glioma; assay: Study AG881-C-004 (INDIGO): clinical response per BIRC and exposure-efficacy analysis; format: in vivo, human
Source text: Exposure-efficacy analyses included clinical response to treatment, i.e., PFS, TTNI, OR (CR+PR+mR), CR+PR, all defined per blind independent review committee (BIRC). […] The exposure metrics were pop PK model predicted individual exposures by using post-hoc individual PK parameters and were based on the actual average dose across the treatment duration. The dose of vorasidenib used in the simulations is corrected for dose-reductions and interruptions occurring during the treatment in real life. […] The exposure-efficacy analysis used the area under the curve (AUCeot) at steady state based on the actual average dose across the treatment duration until EOT. […] For the 14 subjects with dose reductions due to hepatotoxicity AE, a swimming plot showing time on study by individual subject is provided in the Figure. The plot includes details regarding timing and duration of TEAEs leading to dose reduction, timing and duration of reduced dose, as well as disease response by Blinded Independent Central Review (BIRC) at each assessment timepoint.

[2] = Study AG881-C-004 (INDIGO): hepatic enzyme elevation adverse events and dose modifications; format: in vivo, human; conditions: for TEAEs leading to death, number of subjects / Treatment-related TEAEs leading to death, number of subjects: 40 mg QD, hepatic enzymes elevation SMQ
Source text: For Study AG881-C-004, the inclusion criteria specified that subjects with adequate hepatic (serum total bilirubin ≤1.5× upper limit of normal (ULN); and aspartate aminotransferase [AST] or alanine aminotransferase [ALT] at or below ULN; and AP≤2.5×ULN) were eligible for enrollment.
In the INDIGO clinical trial (Study AG881-C-004), 18.6% (31/167) of patients treated with Vorasidenib experienced ALT elevations ≥3 times the ULN and 8.4% (14/167) experienced AST elevations >3 times the ULN. Among these patients, 1.2% (2/167) had concurrent ALT or AST elevations >3 times the ULN and total bilirubin ≥2 times the ULN.
Similarly, more subjects in the vorasidenib arm experienced treatment-related TEAEs than the placebo arm (65 [38.9%] vs. 26 [16.0%] subjects, respectively).
Table 4. Overall Summary of Treatment-Emergent Adverse Events from SMQ (Broad Search) of Hepatic Enzymes Elevation Liver-Related Investigations, Signs and Symptoms—Glioma with Vorasidenib 40 mg QD
Most of the TEAEs were managed within the clinical trial protocol, and discontinuations due to elevated liver enzyme effects were rare (5 subjects, 3%). The median time to resolution (TTR) for the most common (occurred in ≥2 subjects) Grade ≥3 TEAEs in subjects in the vorasidenib arm are as follows:
The exposure-efficacy analysis used the area under the curve (AUCeot) at steady state based on the actual average dose across the treatment duration until EOT.
For the 14 subjects with dose reductions due to hepatotoxicity AE, a swimming plot showing time on study by individual subject is provided in the Figure. The plot includes details regarding timing and duration of TEAEs leading to dose reduction, timing and duration of reduced dose, as well as disease response by Blinded Independent Central Review (BIRC) at each assessment timepoint.

[3] = Study PKH-95032-008: Phase 1, open-label, single-dose pharmacokinetics, safety and tolerability in moderate hepatic impairment vs matched normal hepatic function; format: in vivo, human; conditions: for Tmax: median (minimum, maximum); for Cmax, u: unbound; for half-life / fraction unbound: arithmetic mean±StD; for fraction unbound: read-out: Fu, ave; for AUC0-t, Ratio (%) of Geometric Means (Test/Reference) / Cmax, Ratio (%) of Geometric Means (Test/Reference): moderate hepatic impairment (Test) / normal hepatic function
[4] = in vivo
[5] = Vorasidenib plasma pharmacokinetics across doses (steady-state exposure, dose proportionality); format: in vivo, human
Experimental: At the therapeutic dose of 40 mg QD (Formulation 2), the PopPK model predicted geometric mean AUC,ss and Cmax,ss were 3 times lower than corresponding exposure metrics at 300 mg QD (Formulation 1).

[6] = 4 subjects further reduced from 20 mg QD to 10 mg QD
[7] = 10 subjects reduced from 40 mg QD to 20 mg QD only
[8] = 167 subjects with glioma, only PR
[9] = 167 subjects with glioma, only PR and MR
[10] = Group A normal hepatic function, 20 mg single dose
[11] = Group B moderate hepatic impairment, 20 mg single dose
[12] = human, plasma, 20 mg, Group A normal hepatic function, 20 mg single dose
[13] = human, plasma, 20 mg, Group B moderate hepatic impairment, 20 mg single dose

## C[C@@H](Nc1nc(N[C@H](C)C(F)(F)F)nc(-c2cccc(Cl)n2)n1)C(F)(F)F [vorasidenib, 6-(6-chloropyridin-2-yl)-N^2,N^4-bis((R)-1,1,1-trifluoropropan-2-yl)-1,3,5-triazine-2,4-diamine]
[1]; [6]
  subjects with best response of SD while receiving 10 mg QD: Three
  subjects with response of PD while receiving 10 mg QD: 1 subject
[1]; [7]
  subjects with best response of MR by BIRC while receiving 20 mg QD: 1 subject
  subjects with best response of PD by BIRC while receiving 20 mg QD: one
  subjects with best response of SD by BIRC while receiving 20 mg QD: 8 subjects
[1]; 167 subjects with glioma
  subjects with intervention (TTNI), %: 11.4%
  subjects with intervention (TTNI), number: 19 subjects
  subjects with progression (PFS) per BIRC, %: 28.1%
  subjects with progression (PFS) per BIRC, number: 47 subjects
[1]; [8]
  subjects with CR+PR per BIRC, %: 1.2%
  subjects with CR+PR per BIRC, number: 2 subjects
[1]; [9]
  subjects with OR (CR+PR+mR) per BIRC, %: 10.8%
  subjects with OR (CR+PR+mR) per BIRC, number: 18 subjects
[1]; studied exposure range, Study AG881-C-004
  effect of exposure on efficacy responses (PFS, TTNI, OR and CR+PR): did not affect efficacy responses
[2]; post-crossover, N = 52
  TEAEs leading to death, number of subjects: 0 subjects
  Treatment-related TEAEs leading to death, number of subjects: 0 subjects
[2]; without crossover, N = 167
  TEAEs leading to death, number of subjects: 0 subjects
  Treatment-related TEAEs leading to death, number of subjects: 0 subjects
[2]; human, in vivo
  TEAEs (overall) leading to dose reduction, % of subjects: 10.8%
  TEAEs (overall) leading to dose reduction, number of subjects: 18 subjects
  alanine aminotransferase increased leading to dose reduction, % of subjects: 7.8%
  alanine aminotransferase increased leading to dose reduction, number of subjects: 13 subjects
  alanine aminotransferase increased: % with TTR in >60 days: 41.9%
  alanine aminotransferase increased: % with TTR in ≤15 days: 9.3%
  alanine aminotransferase increased: number of subjects with TTR in >60 days: 36 subjects
  alanine aminotransferase increased: number of subjects with TTR in ≤15 days: 8 subjects
  aspartate aminotransferase increased: % with TTR in >60 days: 21.4%
  aspartate aminotransferase increased: % with TTR in ≤15 days: 28.6%
  aspartate aminotransferase increased: number of subjects with TTR in >60 days: 15 subjects
  aspartate aminotransferase increased: number of subjects with TTR in ≤15 days: 20 subjects
  effect of exposure (AUCavg and Cmax,avg) on ALT, AST, and bilirubin (all grade and Grade ≥2): no statistically significant effect
  median TTR for aspartate aminotransferase increased (any grade): 29.0 days
  median time to resolution (TTR) for alanine aminotransferase increased (any grade): 56.0 days
  patients with ALT elevations ≥3 times the ULN: 18.6%
  patients with ALT elevations ≥3 times the ULN (number/total): 31/167
  patients with AST elevations >3 times the ULN: 8.4%
  patients with AST elevations >3 times the ULN (number/total): 14/167
  patients with concurrent ALT or AST elevations >3 times the ULN and total bilirubin ≥2 times the ULN: 1.2%
  patients with concurrent ALT or AST elevations >3 times the ULN and total bilirubin ≥2 times the ULN (number/total): 2/167
  subjects requiring a dose reduction from 40 mg QD to 20 mg QD only: 10 subjects
  subjects requiring a second dose reduction from 20 mg QD to 10 mg QD: 4 subjects
  subjects with at least 1 dose reduction based on the exposure data (any reason), %: 16.2%
  subjects with at least 1 dose reduction based on the exposure data (any reason), number: 27 subjects
[2]; in vivo
  course of liver enzyme and bilirubin increases: transient and improved or resolved
[3]; 20 mg single dose
  AUC0-t and Cmax, normal hepatic function vs moderate hepatic impairment: similar
  unbound AUC0-t higher in moderate hepatic impairment compared to normal hepatic function: 23%
  unbound plasma protein fraction, both groups compared: similar
[3]; [10]
  Tmax: 3.000 (0.500, 4.00) (10) h
  Cmax, u: 0.8135 (41.7) (10) ng/mL
[3]; [11]
  Tmax: 2.000 (1.00, 3.00) (9) h
  Cmax, u: 1.104 (54.2) (9) ng/mL
[3]; [12]
  half-life: 443 ± 349 h
  fraction unbound: 0.0223 ± 0.00245
[3]; human, plasma, 20 mg, Group A normal hepatic function, 20 mg single dose, geometric mean (geometric CV %), read-out: AUC0-t
  AUC(0-t): 1440 ng·h/mL
[3]; human, plasma, 20 mg, Group A normal hepatic function, 20 mg single dose, geometric mean (geometric CV %), read-out: Cmax
  Cmax: 36.5 ng/mL
[3]; human, plasma, 20 mg, Group A normal hepatic function, 20 mg single dose, read-out: Tmax
  Tmax: ~3 h
[3]; human, plasma, 20 mg, Group A normal hepatic function, total plasma, 20 mg, read-out: AUC0-t, Geometric Mean (linear mixed effects model)
  AUC(0-t): 1390 ng·h/mL
[3]; human, plasma, 20 mg, Group A normal hepatic function, total plasma, 20 mg, read-out: Cmax, Geometric Mean (linear mixed effects model)
  Cmax: 38.2 ng/mL
[3]; [13]
  half-life: 360 ± 189 h
  fraction unbound: 0.0289 ± 0.00354
[3]; human, plasma, 20 mg, Group B moderate hepatic impairment, 20 mg single dose, geometric mean (geometric CV %), read-out: AUC0-t
  AUC(0-t): 1680 ng·h/mL
[3]; human, plasma, 20 mg, Group B moderate hepatic impairment, 20 mg single dose, geometric mean (geometric CV %), read-out: Cmax
  Cmax: 38.5 ng/mL
[3]; human, plasma, 20 mg, Group B moderate hepatic impairment, 20 mg single dose, read-out: Tmax
  Tmax: ~2 h
[3]; human, plasma, 20 mg, Group B moderate hepatic impairment, total plasma, 20 mg, read-out: AUC0-t, Geometric Mean (linear mixed effects model)
  AUC(0-t): 1750 ng·h/mL
[3]; human, plasma, 20 mg, Group B moderate hepatic impairment, total plasma, 20 mg, read-out: Cmax, Geometric Mean (linear mixed effects model)
  Cmax: 38.5 ng/mL
[3]; in vivo
  tolerability of single-dose administration: tolerable
[3]; 20 mg
  AUC0-t, Ratio (%) of Geometric Means (Test/Reference): 126%
  Cmax, Ratio (%) of Geometric Means (Test/Reference): 101%
[3]; 20 mg, listed as Vorasidenib
  AUC0-t, Ratio (%) of Geometric Means (Test/Reference): 125.97%
  Cmax, Ratio (%) of Geometric Means (Test/Reference): 100.66%
[3]; single oral dose of 20 mg
  effect of moderate hepatic impairment (Child-Pugh) on total or free (unbound) exposure: did not lead to clinically relevant changes
[4]
  Fecal excretion, total radioactivity recovery in feces: 84.7%
[5]; from 10 to 200 mg
  dose proportionality of PK: dose proportional
[5]; in vivo
  time dependence of PK: not time-dependent
